In patent publication US12180304B2 (Zhejiang University, priority 2020, dated 2024):

Target: T1, intact recombinant antibody against clothianidin and dinotefuran (Mus musculus, UniProt P01837+P01868)
T1 construct: The heavy and light chain variable region genes were ligated to linearized expression vectors pCDNA3.4-Mouse-IgG1 and pCDNA3.4-Mouse-Kappa; mouse IgG1 heavy chain constant region (fusion partner); mouse kappa light chain constant region (fusion partner); made in house; host or cells: HEK293F cells, double-plasmid transfection, Protein A purification
Experiment: heterologous indirect competitive ELISA (thiacloprid-OVA coating antigen)
Assay type: binding
Description: In the early stage of preparation of parental ascitic monoclonal antibodies, a difference in sensitivity was compared between the homologous indirect competitive ELISA (coating antigen was clothianidin-OVA) and the heterologous indirect ELISA (coating antigens were thiacloprid-OVA and imidaclothiz-OVA).
In the present disclosure, the specificity of the antibody was evaluated by detecting the cross-reactivity with eight common neonicotinoid insecticides.

SMILES	linear range (IC20 to IC80) [ng/mL]
CN/C(=N\[N+](=O)[O-])NCc1cnc(Cl)s1 [clothianidin]	1.08 to 15.06
CN/C(=N/CC1CCOC1)N[N+](=O)[O-] (centres unmarked) [dinotefuran]	3.78 to 30.03
